We go through four compounds from patent US20260265329A1, “POLYPEPTIDE AND DERIVATIVE THEREOF, COMPOSITION, AND USE THEREOF” (HANGZHOU SCIWIND BIOSCIENCES CO., LTD., priority 2023, published 2026).

Starred links: 1 amine or outer side, 2 acyl side, 3 side chain; linkers in the order of their positions; H or OH if unused. Non-standard residues stand in square brackets, D forms with d. Residues, ends and D or L forms follow the SMILES beside them. *: point of attachment. C20 diacid = O=C(O)CCCCCCCCCCCCCCCCCCC(=O)*; γGlu = O=C(O)[C@H](CCC(=O)[*:2])N[*:1]; Hyp = O=C(O)[C@@H]1C[C@@H](O)CN1; Inp = O=C(O)C1CCNCC1

One series addresses T1, human amylin receptors (Homo sapiens, UniProt O60896+P30988).
T1 construct: host or cells: CHO-K1/Ga15/AMY3 cells, further stably transfected with a CRE-luciferase plasmid
T1 sequence (P30988 25-474): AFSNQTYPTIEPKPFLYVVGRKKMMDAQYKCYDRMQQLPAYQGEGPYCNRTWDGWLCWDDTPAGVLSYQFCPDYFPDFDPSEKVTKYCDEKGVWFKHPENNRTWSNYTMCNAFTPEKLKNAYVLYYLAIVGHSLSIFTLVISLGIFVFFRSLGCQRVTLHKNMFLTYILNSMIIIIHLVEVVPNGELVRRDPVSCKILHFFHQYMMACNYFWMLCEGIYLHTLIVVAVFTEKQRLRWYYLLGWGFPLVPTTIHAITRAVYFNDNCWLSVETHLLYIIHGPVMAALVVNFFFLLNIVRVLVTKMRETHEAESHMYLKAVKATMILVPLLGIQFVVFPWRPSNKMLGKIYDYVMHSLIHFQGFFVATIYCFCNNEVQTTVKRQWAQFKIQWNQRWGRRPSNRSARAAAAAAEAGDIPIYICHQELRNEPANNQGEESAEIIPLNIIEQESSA
T1 sequence (O60896 24-148 partner): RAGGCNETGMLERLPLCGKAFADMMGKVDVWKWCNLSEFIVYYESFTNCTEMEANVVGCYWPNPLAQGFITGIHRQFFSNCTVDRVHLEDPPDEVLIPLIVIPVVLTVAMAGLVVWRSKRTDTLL
Description: Luciferase assay in stably transfected amylin receptor/CRE-luc CHO cell line. In kind it is cell-based. The settings on record: for Relative activity: EC50 ratio of Cagrilintide to the compound, Cagrilintide 100%; for EC50: amylin receptor/CRE-luc CHO cells, 24 hours incubation, luminescence.

Series [1] in a line: Heat accelerated stability assay, 40° C., detection on 7 d and 28 d. In kind it is physicochemical. As to conditions: for Purity from the reversed phase chromatography-214 nm, 0 d / Purity from the reversed phase chromatography-214 nm, 7 d / Purity from the reversed phase chromatography-214 nm, 28 d: 1 mg/mL, pH about 7.4, 40° C.; for Change (7 d − 0 d): purity on 7 d − purity on 0 d; for Change (7 d − 0 d) / Change (28 d − 0 d): 40° C., pH about 7.4; for Change (28 d − 0 d): purity on 28 d − purity on 0 d. As to the method: The derivatives (1 mg/mL) were mixed with sodium dihydrogen phosphate (1.42 mg/mL) and dissolved in ultrapure water. After adjusting pH to about 7.4 with hydrochloric acid/sodium hydroxide, the solution was filtered into a sterilized vial in a clean bench using a 0.22 μm sterile filter. The vial was then capped and placed into the stability test chamber at 40° C. Detections were made on Days 7 (7d) and 28 (28d), and during the assay, changes in the characteristics and properties of the polypeptides were observed and recorded. The sample was then centrifuged for 3 min at 10000 rpm at 4° C., and the supernatant was transferred to a liquid phase sample vial for detecting the concentration and purity of the polypeptides using liquid phase chromatography described as below.
Conditions of the reversed phase chromatography Flow rate: 1.0 mL/min; Autosampler temperature: 15° C.; Column temperature: 25° C.; Detection wavelength: 214 nm; Mobile phase A: 100% H2O+0.05% TFA; Mobile phase B: 100% ACN; and Gradient of elution listed in Table 4: […]

As a reminder, the EC50 is the concentration needed to bring the measured effect to its halfway point. Read a high EC50 as a need for much substance. For the compound `CC[C@H](C)[C@H](NC(=O)[C@H](CC(=O)O)NC(=O)[C@H](CCCNC(=N)N)NC(=O)[C@H](CC(=O)O)NC(=O)[C@H](CCCNC(=N)N)NC(=O)[C@H](CC(=O)O)NC(=O)[C@@H](NC(=O)[C@H](Cc1ccccc1)NC(=O)[C@H](Cc1c[nH]cn1)NC(=O)[C@H](CCCNC(=N)N)NC(=O)[C@H](CC(C)C)NC(=O)[C@H](Cc1ccccc1)NC(=O)[C@H](CC(=O)O)NC(=O)[C@H](C)NC(=O)[C@H](CC(C)C)NC(=O)[C@H](CCCNC(=N)N)NC(=O)CNC(=O)[C@H](CC(C)C)NC(=O)[C@@H](NC(=O)[C@H](C)NC(=O)[C@@H](NC(=O)[C@H](CO)NC(=O)[C@H](CC(C)C)NC(=O)[C@H](CCC(N)=O)NC(=O)[C@H](CO)NC(=O)[C@H](C)NC(=O)CC[C@H](NC(=O)CCCCCCCCCCCCCCCCCCC(=O)O)C(=O)O)[C@@H](C)O)C(C)C)[C@@H](C)O)C(=O)N[C@@H](CC(C)C)C(=O)N1CCC[C@H]1C(=O)N1CCC[C@H]1C(=O)N[C@H](C(=O)N[C@@H](CC(N)=O)C(=O)N[C@H](C(=O)NCC(=O)N[C@@H](CO)C(=O)N[C@@H](CC(N)=O)C(=O)N[C@H](C(=O)N1CCC[C@H]1C(N)=O)[C@@H](C)O)C(C)C)[C@@H](C)O` [M4] ({C20 diacid-γGlu}-ASQLSTAVLGRLADFLRHFTDRDRDILPPTNVGSNTP-NH2), on human amylin receptors, the Relative activity is 32% and the EC50 stood at 0.081 nM. In series [1], the “Purity from the reversed phase chromatography-214 nm, 0 d” value (shortened to “Purity … 0 d”) turned out to be 95; the “Purity from the reversed phase chromatography-214 nm, 7 d” value (“Purity … 7 d” below) was 94.22; the “Purity from the reversed phase chromatography-214 nm, 28 d” value is recorded as 92.25; the “Change (7 d − 0 d)” value is −0.78. In series [1], the “Change (28 d − 0 d)” value is −2.75.
`CC[C@H](C)[C@H](NC(=O)[C@@H]1CCCN1C(=O)[C@H](CCCCN)NC(=O)[C@H](CC(C)C)NC(=O)[C@H](CC(N)=O)NC(=O)[C@H](CC(N)=O)NC(=O)[C@H](CO)NC(=O)[C@H](CO)NC(=O)[C@H](Cc1c[nH]cn1)NC(=O)[C@H](CCCNC(=N)N)NC(=O)[C@H](CC(C)C)NC(=O)[C@H](Cc1ccccc1)NC(=O)[C@H](CC(=O)O)NC(=O)[C@H](C)NC(=O)[C@H](CC(C)C)NC(=O)[C@H](CCCNC(=N)N)NC(=O)CNC(=O)[C@H](CC(C)C)NC(=O)[C@@H](NC(=O)[C@H](C)NC(=O)[C@@H](NC(=O)[C@H](CO)NC(=O)[C@H](CC(C)C)NC(=O)[C@H](CCC(N)=O)NC(=O)[C@H](CO)NC(=O)[C@H](C)NC(=O)CC[C@H](NC(=O)CCCCCCCCCCCCCCCCCCC(=O)O)C(=O)O)[C@@H](C)O)C(C)C)C(=O)N[C@@H](CC(C)C)C(=O)N1CCC[C@H]1C(=O)N1CCC[C@H]1C(=O)N[C@H](C(=O)N[C@@H](CC(N)=O)C(=O)N[C@H](C(=O)NCC(=O)N[C@@H](CO)C(=O)N[C@@H](CC(N)=O)C(=O)N[C@H](C(=O)N1C[C@H](O)C[C@H]1C(N)=O)[C@@H](C)O)C(C)C)[C@@H](C)O` [M2] ({C20 diacid-γGlu}-ASQLSTAVLGRLADFLRHSSNNLKPILPPTNVGSNT[Hyp]-NH2): on human amylin receptors, the Relative activity is listed as 68% and the EC50 amounted to 0.038 nM. Besides, in series [1], the “Purity … 0 d” value is on record as 85.15; the “Purity … 7 d” value is given as 85.16; the “Purity from the reversed phase chromatography-214 nm, 28 d” value amounted to 85.44; the “Change (7 d − 0 d)” value stood at 0.01. In addition, in series [1], the “Change (28 d − 0 d)” value worked out at 0.29.
As to “M10: ASQLSTAVLQRLADFLRHFTDRDRDILPPTNVGSNTP-NH2 (SEQ ID No. 10), N-terminal side chain C20 diacid + γGlu ({C20 diacid-γGlu}-ASQLSTAVLQRLADFLRHFTDRDRDILPPTNVGSNTP-NH2; SMILES CC[C@H](C)[C@H](NC(=O)[C@H](CC(=O)O)NC(=O)[C@H](CCCNC(=N)N)NC(=O)[C@H](CC(=O)O)NC(=O)[C@H](CCCNC(=N)N)NC(=O)[C@H](CC(=O)O)NC(=O)[C@@H](NC(=O)[C@H](Cc1ccccc1)NC(=O)[C@H](Cc1c[nH]cn1)NC(=O)[C@H](CCCNC(=N)N)NC(=O)[C@H](CC(C)C)NC(=O)[C@H](Cc1ccccc1)NC(=O)[C@H](CC(=O)O)NC(=O)[C@H](C)NC(=O)[C@H](CC(C)C)NC(=O)[C@H](CCCNC(=N)N)NC(=O)[C@H](CCC(N)=O)NC(=O)[C@H](CC(C)C)NC(=O)[C@@H](NC(=O)[C@H](C)NC(=O)[C@@H](NC(=O)[C@H](CO)NC(=O)[C@H](CC(C)C)NC(=O)[C@H](CCC(N)=O)NC(=O)[C@H](CO)NC(=O)[C@H](C)NC(=O)CC[C@H](NC(=O)CCCCCCCCCCCCCCCCCCC(=O)O)C(=O)O)[C@@H](C)O)C(C)C)[C@@H](C)O)C(=O)N[C@@H](CC(C)C)C(=O)N1CCC[C@H]1C(=O)N1CCC[C@H]1C(=O)N[C@H](C(=O)N[C@@H](CC(N)=O)C(=O)N[C@H](C(=O)NCC(=O)N[C@@H](CO)C(=O)N[C@@H](CC(N)=O)C(=O)N[C@H](C(=O)N1CCC[C@H]1C(N)=O)[C@@H](C)O)C(C)C)[C@@H](C)O)”, in series [1] (in % (unit assumed)), the “Purity … 0 d” value is listed as 94.73; the “Purity … 7 d” value is listed as 94.89; the “Change (28 d − 0 d)” value was −0.93. Moreover, in series [1], the Purity from the reversed phase chromatography-214 nm, 28 d amounted to 93.8% and the Change (7 d − 0 d) was found to be 0.16%.
Turning to `CC[C@H](C)[C@H](NC(=O)[C@@H]1CCCN1C(=O)[C@H](CCCCN)NC(=O)[C@H](CC(C)C)NC(=O)[C@H](CC(N)=O)NC(=O)[C@H](CC(N)=O)NC(=O)[C@H](CO)NC(=O)[C@H](CO)NC(=O)[C@H](Cc1c[nH]cn1)NC(=O)[C@H](CCCNC(=N)N)NC(=O)[C@H](CC(C)C)NC(=O)[C@H](Cc1ccccc1)NC(=O)[C@H](CC(=O)O)NC(=O)[C@H](C)NC(=O)[C@H](CC(C)C)NC(=O)[C@H](CCCNC(=N)N)NC(=O)[C@H](CCC(N)=O)NC(=O)[C@@H](NC(=O)[C@H](C)NC(=O)[C@H](C)NC(=O)[C@@H](NC(=O)[C@H](CO)NC(=O)[C@H](CC(C)C)NC(=O)[C@H](CCC(N)=O)NC(=O)[C@H](CO)NC(=O)[C@H](C)NC(=O)C1CCN(C(=O)CCCCCCCCCCCCCCCCCCC(=O)O)CC1)[C@@H](C)O)[C@@H](C)O)C(=O)N[C@@H](CC(C)C)C(=O)N1CCC[C@H]1C(=O)N1CCC[C@H]1C(=O)N[C@H](C(=O)N[C@@H](CC(N)=O)C(=O)N[C@H](C(=O)NCC(=O)N[C@@H](CO)C(=O)N[C@@H](CC(N)=O)C(=O)N[C@H](C(=O)N1C[C@H](O)C[C@H]1C(N)=O)[C@@H](C)O)C(C)C)[C@@H](C)O` [M30] ({C20 diacid-Inp}-ASQLSTAATQRLADFLRHSSNNLKPILPPTNVGSNT[Hyp]-NH2), it took 0.039 nM to reach a half-maximal effect at human amylin receptors (EC50). That is a picomolar value.
